What was measured:
iNOS = assay: Survey of iNOS inhibition, 2 hr LPS pre-stimulation (nitrite by Greiss reagent); format: cell-based, murine; details: RAW 264.7 cells, LPS/ATP stimulation for two hours, then compound added
Method: We chose the well characterized LPS stimulation of the murine macrophage cell line RAW 264.7, that produces substantial quantities of NO, to screen inositol polyphosphate compounds in vitro (FIGS. 8-12 and Table 1). This assay system offers a number of opportunities to characterize drug action as pre-transcriptional, post transcriptional, translational or post translational.
Nitrite (NO2^−) accumulation in cell-free supernatant, used as an indicator of NO production, was measured using the modified Greiss reagent (Sigma G4410, St Louis, Mo.). This method was applied as described elsewhere (Martinez, J. et al., “Regulation of prostaglandin E2 production by the superoxide radical and nitric oxide in mouse peritoneal macrophages,” Free Radical Res 32:303-311 (2000)). Briefly, RAW264.7 cells (ATCC, #TIB-71) were maintained in standard tissue culture flasks and with DMEM+10% heat inactivated fetal bovine serum(HI-FBS) (Fetal-bovine serum, Heat-inactivated, Sercare Life Sciences, Oceanside, Calif.). Experiments were initiated by seeding logarithmic cells at […] per well in a 96-well plate in phenol-red free RPMI 1640 (Sigma #R8755)+10% HI-FBS at least four hours before the initiation of the experiment. Cells were exposed to treatment compounds for a minimum of 30 minutes in RPMI-1640 supplemented with 10% fetal calf serum. The compound treatment was removed and inflammatory compounds dissolved in RPMI-1640 supplemented with 10% FBS were applied to the cells. Stimulated cells and appropriate controls were incubated for 18-24 hours before sampling 50 μl of the cell-free supernatant from each well. This sample of supernatant was combined with 25 μl of a nitrate reductase cocktail (0.1 units/ml nitrate reductase enzyme, 5 μM FAD, 30 μM NADPH) and incubated for 30 minutes[…]. To this mixture, 25 μl of LDH cocktail (100 units/ml rabbit muscle lactate dehydrogenase in 0.3 mM sodium pyruvate) was added and the total mixture was incubated another 5-10 min at […]. Greiss reagent was added in 100 μl amounts to each 100 μl experimental sample. Color development proceeded for a minimum of 10 minutes while protected from light. Nitrite levels were compared to a sodium nitrite standard curve freshly prepared in the same medium used for the growth and incubation of the cells and treated with the same enzyme treatments. Color development was recorded by using a Packard Spectracount Plate reader at 540 nm wave length.
It is important to identify the conditions under which the compounds exert their greatest desired effect with the minimal adverse effects. Understanding this relationship is important as signaling molecule mimetics may require special conditions of concentration and duration to generate the desired therapeutic effect. To ascertain whether effects could be observed post-exposure to stimulus, cells were exposed to the LPS/ATP stimulation for two hours at […] after which compound was added.

human CF nasal epithelia = assay: Blue Dextran volume transport assay; format: cell-based; details: CF nasal epithelia monolayers, apical application, 18 hours
Source text: In normal human airway epithelia, Na+ and Cl− currents (CFTR and Ca2+-activated Cl− currents) contribute to airway surface liquid (ASL) fluid volume regulation depending on signaling equilibria. In contrast, in human CF airway epithelia, Na+ currents through ENaC dominate basal ASL volume regulation accompanied by a relatively minor contribution through Ca2+-activated Cl− currents. The combination of enhanced ENaC currents and transient Ca2+-activated Cl− currents in CF result in an inadequate hydration of the ASL and reduction of mucociliary clearance. […] The resulting reduction in the ability of these monolayers to concentrate BD was taken as a functional indicator of the test compound's involvement in the inhibition of ENaC.
All procedures were performed aseptically. The Blue Dextran (BD) stock solution was prepared with HEPES modified Ringer's buffer (HMRB) (2 mg BD/ml buffer). The compounds tested were solubilized in HMRB containing ˜1 μM BD. Final concentration of vehicle is 0.1% unless otherwise indicated (1:1, DMSO+DMSO containing 5% (w/v) pluronic-F127). The composition of HMRB (pH 7.3, 6.7 when equilibrated with 95%air/5%CO2) is as follows (in mM): 135 NaCl, 1.2 CaCl2, 1.2 MgCl2, 2.4 K2HPO4, 0.6 KH2PO4, 10 HEPES, 10 glucose (˜285 mOsm.). 200 μl of the BD solution was applied to the apical surface and placed in a highly humidified incubator (Forma model 3956 set on “high” humidity) for 18 hours. Basolateral buffer consisted of BEGM (˜300 mOsm.). After 18 hours, 60 μl of the remaining apical buffer was sampled and transferred to a 0.7 ml micro-centrifuge tube for storage until analysis. A standard concentration curve was obtained by determining the optical densities, at 660 nm, of a serial dilution of 10 μM Blue Dextran in HMRB in a 96-well plate using a Packard Spectracount. The [BD] of the samples, which were read on the same plate, was determined by extrapolation from the BD standard curve using Packard I-Smart software. The increase in [BD] from the starting value of 1 μM was taken to be an indication of the magnitude of volume absorption occurring across the monolayer. The rate of absorption was calculated by dividing the change in volume by the duration of the experiment. This value was normalized to a surface area of 1 cm^2, to give μl·cm2 −1·hr −1. All experiments, unless otherwise indicated, were conducted over a period of 18 hours.

CFHNE cell monolayers = assay: Cystic fibrosis human nasal epithelial cell Ussing chamber assay; format: cell-based; details: 2 hour pretreatment, measured 22 hours later
Source text: CF Human Nasal Epithelial (CFHNE) Cell Isolation and Proliferation: Surgically removed nasal polyps were obtained from volunteers in collaboration with Dr. Bonnie Ramsey at Children's Hospital, Seattle and Dr. Ludwig Allegra at the Northwest Nasal Sinus Center, and transported on ice in a sterile container containing a 1:1 mixture of Dulbecco's modification of minimum essential medium Eagle and Ham's F-12 nutrient medium (DMEM/F-12)(Irvine Scientific, Santa Ana, Calif.) supplemented with 100 U/ml penicillin, 0.1 mg/ml streptomycin, 10 mM HEPES, and 2 mM L-glutamine. The tissue samples were aseptically removed from the transport medium and washed (repeated 5X) by suspending in 40 ml of Joklik's modification of minimum essential medium Eagle (JMEM) at 4° C., and centrifuging at 500 RPM. The supernatant was aspirated and discarded. The tissue was then transferred to JMEM containing 200 U/ml penicillin, 0.2 mg/ml streptomycin, 0.1 mg/ml gentamicin sulfate (Clonetics, San Diego, Calif.), and 0.1 μg/ml amphotericin-B (Clonetics), and 0.1% Protease (Sigma), washed an additional 2×, suspended in 15 ml in a 10 cm tissue culture dish, and incubated at 4° C. for 24 hours. The tissue samples were then gently triturated, the connective tissue aseptically removed, and the remaining cell suspension centrifuged at 1000 RPM for 5 min. […] The cells were then counted using a hemocytometer. […]

CCC(=O)OCOP(=O)(OCOC(=O)CC)OC1C2OC3(CC4CCC3(C)C4(C)C)OC2C(OP(=O)(OCOC(=O)CC)OCOC(=O)CC)C(OP(=O)(OCOC(=O)CC)OCOC(=O)CC)C1OP(=O)(OCOC(=O)CC)OCOC(=O)CC (centres unmarked) [INO-4984, 2,3-camphanylidene-myo-inositol 1,4,5,6-tetrakisphosphate octakis (propionoxymethyl) ester] gave an IC50 (iNOS; experiment 1 of three) of 18 µM, an IC50 (iNOS; experiment 2 of three) of 3.13 µM and an IC50 (iNOS; experiment 3 of three) of 12.5 µM. For the same compound, the “inhibition of fluid absorption” value (human CF nasal epithelia) was “dose dependent inhibition of fluid absorption”.

In the case of CCC(=O)OCOP(=O)(OCOC(=O)CC)OC1C2OC3(CC4CCC3(C)C4(C)C)OC2C(OP(=O)(OCOC(=O)CC)OCOC(=O)CC)C(OP(=O)(OCOC(=O)CC)OCOC(=O)CC)C1OP(=O)(OCOC(=O)CC)OCOC(=O)CC (centres unmarked) [INO-4996, 1,2-camphanylidene-myo-inositol 3,4,5,6-tetrakisphosphate octakis (propionoxymethyl) ester], the IC50 (iNOS; experiment 1 of three) is reported as 6.25 µM, the IC50 (iNOS; experiment 2 of three) is reported as 3.13 µM and the IC50 (iNOS; experiment 3 of three) is reported as 6.25 µM. For the same compound, the “inhibition of fluid absorption” value (human CF nasal epithelia) was “dose dependent inhibition of fluid absorption”.

With CCCC(=O)OC1C(OCCCc2ccccc2)C(OP(=O)(OCOC(=O)CC)OCOC(=O)CC)C(OP(=O)(OCOC(=O)CC)OCOC(=O)CC)C(OP(=O)(OCOC(=O)CC)OCOC(=O)CC)C1OP(=O)(OCOC(=O)CC)OCOC(=O)CC (centres unmarked) [INO-4997, 2-O-butyryl-1-O-(3-phenylpropyl)-myo-inositol 3,4,5,6-tetrakisphosphate octakis (propionoxymethyl) ester] the “effect on basal Isc” value (CFHNE cell monolayers) was “prolonged effect”, the IC50 (iNOS; experiment 1 of three) was 12.5 µM and the IC50 (iNOS; experiment 2 of three) was 12.5 µM. The IC50 (iNOS; experiment 3 of three) was 9 µM and the “inhibition of fluid absorption” value (human CF nasal epithelia) was “dose dependent inhibition of fluid absorption”.

With N=C(N)NC(=O)c1nc(Cl)c(N)nc1N [amiloride, reference compound] the “inhibition of fluid absorption” value (human CF nasal epithelia) was “inhibited fluid absorption measured by the Blue Dextran assay in a dose dependent fashion”.

Source: patent US20070129336A1, “Camphanylidene and phenylalkyl inositol polyphosphate compounds, compositions, and methods of their use” (Inologic, Inc., priority 2003, published 2007)
